Values of other authors in US20040087644A1, “Pharmaceutical composition in capsules that comprises a non-steroidal antiinflamatory and an optiate analgesic for handling pain” (Leopoldo Espinosa Abdala, priority 2002, published 2004).

Assays:
pain = conditions: clinical studies, compared with opiates
[1] = in vivo

dose excreted through the urine without changes [1]: About 90%
Structure (SMILES): O=C(c1ccccc1)c1ccc2n1CCC2C(=O)O (centres unmarked) [Ketorolac]
analgesic efficiency (pain): comparable with opiates
